Patent US7358248B2, “Substituted amino carboxylic acids” (The Institute for Pharmaceutical Discovery LLC, priority 2003, dated 2008)

First: O=C(Cc1ccccc1)N[C@@H](CSCc1ccc(-c2ccc(-c3c(Cc4ccccc4)oc4ccccc34)cc2)cc1)C(=O)O [Example 71, (2R)-2-Phenylacetylamino-3-[4′-(2-benzylbenzofuran-3-yl)biphen-4-ylmethyl-sulfanyl]-propionic acid]
Second: O=C(N[C@@H](CSCc1ccc(-c2ccc(-c3c(Cc4ccccc4)oc4ccccc34)cc2)cc1)C(=O)O)c1ccccc1 [Example 70, (2R)-2-Benzoylamino-3-[4′-(2-benzylbenzofuran-3-yl)biphen-4-ylmethylsulfanyl]-propionic acid]
The melting point of the first is lower: 77 to 78 °C for the first, 138 to 139 °C for the second.

Compared with `O=C(Cc1cccc([N+](=O)[O-])c1)N[C@@H](C[S+]([O-])Cc1ccc(-c2ccc(-n3ccc4ccccc43)cc2)cc1)C(=O)O` (stereo partly drawn) [Example 17, (2R)-3-(4′-Indol-1-ylbiphen-4-ylmethylsulfinyl)-2-[2-(3-nitrophenyl)acetylamino]-propionic acid], `O=C(Cc1cccc([N+](=O)[O-])c1)N[C@@H](CSCc1ccc(-c2ccc(-n3ccc4ccccc43)cc2)cc1)C(=O)O` [Example 10, (2R)-3-(4′-Indol-1-ylbiphen-4-ylmethylsulfanyl)-2-[2-(3-nitrophenyl)acetylamino]-propionic acid] is lower in melting point: 197 to 198 °C for the first, 94 °C for the second.

First: O=C(N[C@@H](CSCc1ccc(-c2ccc(-c3c(Cc4ccccc4)oc4ccccc34)cc2)cc1)C(=O)O)c1ccc2nc[nH]c2c1 [Example 73]
Second: O=C(Cc1ccc(F)cc1)N[C@@H](CSCc1ccc(-c2ccc(-c3c(Cc4ccccc4)oc4ccccc34)cc2)cc1)C(=O)O [Example 74, (2R)-2-(4-Fluorophenylacetylamino)-3-[4′-(2-benzylbenzofuran-3-yl)biphen-4-ylmethylsulfanyl]-propionic acid]
The melting point of the first is higher: 149 to 150 °C for the first, 82 to 84 °C for the second.

First: O=C(Cc1ccc(O)cc1)N[C@@H](CSCc1ccc(-c2ccc(-c3c(Cc4ccccc4)oc4ccccc34)cc2)cc1)C(=O)O [Example 79, (2R)-2-(4-Hydroxyphenylacetylamino)-3-[4′-(2-benzylbenzofuran-3-yl)biphen-4-ylmethylsulfanyl]-propionic acid]
Second: Nc1ccc(CC(=O)N[C@@H](CSCc2ccc(-c3ccc(-c4c(Cc5ccccc5)oc5ccccc45)cc3)cc2)C(=O)O)cc1 [Example 82, (2R)-2-(4-Aminophenylacetylamino)-3-[4′-(2-benzylbenzofuran-3-yl)biphen-4-ylmethylsulfanyl]-propionic acid]
The melting point of the first is lower: 148 to 149 °C for the first, 170 to 172 °C for the second.

First: O=C(Cc1ccccc1[N+](=O)[O-])N[C@@H](CSCc1ccc(-c2ccc(-c3c(Cc4ccccc4)oc4ccccc34)cc2)cc1)C(=O)O [Example 78, (2R)-2-(2-Nitrophenylacetylamino)-3-[4′-(2-benzylbenzofuran-3-yl)biphen-4-ylmethylsulfanyl]-propionic acid]
Second: O=C(Cc1cccc([N+](=O)[O-])c1)N[C@@H](CSCc1ccc(-c2ccc(-c3c(Cc4ccccc4)oc4ccccc34)cc2)cc1)C(=O)O [Example 75, (2R)-2-(3-Nitrophenylacetylamino)-3-[4′-(2-benzylbenzofuran-3-yl)biphen-4-ylmethylsulfanyl]-propionic acid]
The melting point of the first is higher: 189 to 191 °C for the first, 108 to 109 °C for the second.

First: CC(C)(C)OC(=O)N[C@@H](CS(=O)(=O)Cc1ccc(-c2ccc(-c3c(Cc4ccccc4)oc4ccccc34)cc2)cc1)C(=O)O [Example 68, (2R)-3-[4′-(2-benzylbenzofuran-3-yl)biphen-4-ylmethylsulfonyl]-2-tert-butoxycarbonylaminopropionic acid]
Second: CC(C)(C)OC(=O)N[C@@H](CSCc1ccc(-c2ccc(-c3c(Cc4ccccc4)oc4ccccc34)cc2)cc1)C(=O)O [Example 66, (2R)-3-[4′-(2-benzylbenzofuran-3-yl)biphen-4-ylmethylsulfanyl]-2-tert-butoxy-carbonylamino-propionic acid]
The melting point of the first is higher: 202 to 203 °C for the first, 89 to 90 °C for the second.

First: CC(=O)NC(CSCc1ccc(-c2nc(-c3ccccc3)cc(-c3ccccc3)n2)cc1)C(=O)O (stereo not drawn) [Example 95, 2-Acetylamino-3-[4-(4,6-diphenyl-pyrimidin-2-yl)-benzylsulfanyl]-propionic acid]
Second: CC(=O)N[C@@H](CSCc1ccc(-c2ccc(-c3c(Cc4ccccc4)oc4ccccc34)cc2)cc1)C(=O)O [Example 80, (2R)-2-Acetylamino-3-[4′-(2-benzylbenzofuran-3-yl)biphen-4-ylmethylsulfanyl]-propionic acid]
The melting point of the first is higher: 223 to 226 °C for the first, 131 to 132 °C for the second.

First: CC(C)(C)OC(=O)N[C@@H](CSCc1ccc(-c2ccc(-c3cccc4c3sc3ccccc34)cc2)cc1)C(=O)O [Example 107, 2-tert-Butoxycarbonylamino-3-(4′-dibenzothiophen-4-yl-biphenyl-4-ylmethyl-sufanyl)-propionic acid]
Second: CC(C)(C)OC(=O)N[C@@H](CSCc1ccc(-c2ccc(-c3ccc4c(c3)OCO4)cc2)cc1)C(=O)O (stereo in doubt) [Example 101, 3-(4′-Benzo[1,3]dioxol-5-yl-biphenyl-4-ylmethylsulfanyl)-2-tert-butoxycarbonylamino-propionic acid]
The melting point of the first is lower: 108 to 110 °C for the first, 178 to 180 °C for the second.

First: CC(C)COC(=O)N[C@@H](CSCc1ccc(-c2ccc(-n3ccc4ccccc43)cc2)cc1)C(=O)O [Example 13, (2R)-3-(4′-Indol-1-ylbiphen-4-ylmethylsulfanyl)-2-isobutoxycarbonylamino-propionic acid]
Second: COC(=O)N[C@@H](CSCc1ccc(-c2ccc(-n3ccc4ccccc43)cc2)cc1)C(=O)O [Example 12, (2R)-3-(4′-Indol-1-ylbiphen-4-ylmethylsulfanyl)-2-methoxycarbonylamino-propionic acid]
The melting point of the first is higher: 85 to 86 °C for the first, 81 to 82 °C for the second.

Compared with `CC(C)(C)OC(=O)N[C@@H](C[S+]([O-])Cc1ccc(-c2ccc(-n3ccc4ccccc43)cc2)cc1)C(=O)O` (stereo partly drawn) [Example 7, (2R)-tert-Butoxycarbonylamino-3-(4′-indol-1-ylbiphen-4-ylmethylsulfinyl)-propionic acid], `CC(C)(C)OC(=O)N[C@@H](C[S+]([O-])Cc1ccc(-c2ccc(-c3c(Cc4ccccc4)oc4ccccc34)cc2)cc1)C(=O)O` (stereo partly drawn) [Example 67, (2R,4RS)-3-[4′-(2-benzylbenzofuran-3-yl)biphen-4-ylmethylsulfinyl]-2-tert-butoxycarbonylaminopropionic acid] is higher in melting point: 169 to 170 °C for the first, 195 to 196 °C for the second.

First: O=C(Cc1ccc([N+](=O)[O-])cc1)N[C@@H](CSCc1ccc(-c2ccc(-c3c(Cc4ccccc4)oc4ccccc34)cc2)cc1)C(=O)O [Example 77, (2R)-2-(4-Nitrophenylacetylamino)-3-[4′-(2-benzylbenzofuran-3-yl)biphen-4-ylmethylsulfanyl]-propionic acid]
Second: COc1ccc(CC(=O)N[C@@H](CSCc2ccc(-c3ccc(-c4c(Cc5ccccc5)oc5ccccc45)cc3)cc2)C(=O)O)cc1 [Example 81, (2R)-2-(4-Methoxyphenylacetylamino)-3-[4′-(2-benzylbenzofuran-3-yl)biphen-4-ylmethylsulfanyl]-propionic acid]
The melting point of the first is higher: 102 to 103 °C for the first, 59 to 60 °C for the second.

For `O=C(O)[C@H](CSCc1ccc(-c2ccc(-n3ccc4ccccc43)cc2)cc1)NC(=O)N1CCOCC1` [Example 14, (2R)-3-(4′-Indol-1-ylbiphen-4-ylmethylsulfanyl)-2-[(morpholine-4-carbonyl)-amino]-propionic acid], the melting point was 195 °C (dec.).
In the case of `CC(C)(C)OC(=O)NC(CSCc1ccc(-c2nc(-c3ccccc3)cc(-c3ccccc3)n2)cc1)C(=O)O` (stereo not drawn) [Example 93, 2-tert-Butoxy carbonylamino-3-[4-(4,6-diphenylpyrimidin-2-yl)-benzylsulfanyl]propionic acid], the melting point is reported as 250 °C (dec.).
